# Data taken from patent US12428415B2, “Matriptase 2 inhibitors and uses thereof” (Disc Medicine, Inc., priority 2018, dated 2025).
# Target: T1, Human Recombinant Matriptase 2 (Homo sapiens, UniProt Q8IU80)
# T1 construct: purchased Enzo Life Sciences (an in-house preparation was also used) ALX-201-752-1
# T1 sequence (Q8IU80 1-811): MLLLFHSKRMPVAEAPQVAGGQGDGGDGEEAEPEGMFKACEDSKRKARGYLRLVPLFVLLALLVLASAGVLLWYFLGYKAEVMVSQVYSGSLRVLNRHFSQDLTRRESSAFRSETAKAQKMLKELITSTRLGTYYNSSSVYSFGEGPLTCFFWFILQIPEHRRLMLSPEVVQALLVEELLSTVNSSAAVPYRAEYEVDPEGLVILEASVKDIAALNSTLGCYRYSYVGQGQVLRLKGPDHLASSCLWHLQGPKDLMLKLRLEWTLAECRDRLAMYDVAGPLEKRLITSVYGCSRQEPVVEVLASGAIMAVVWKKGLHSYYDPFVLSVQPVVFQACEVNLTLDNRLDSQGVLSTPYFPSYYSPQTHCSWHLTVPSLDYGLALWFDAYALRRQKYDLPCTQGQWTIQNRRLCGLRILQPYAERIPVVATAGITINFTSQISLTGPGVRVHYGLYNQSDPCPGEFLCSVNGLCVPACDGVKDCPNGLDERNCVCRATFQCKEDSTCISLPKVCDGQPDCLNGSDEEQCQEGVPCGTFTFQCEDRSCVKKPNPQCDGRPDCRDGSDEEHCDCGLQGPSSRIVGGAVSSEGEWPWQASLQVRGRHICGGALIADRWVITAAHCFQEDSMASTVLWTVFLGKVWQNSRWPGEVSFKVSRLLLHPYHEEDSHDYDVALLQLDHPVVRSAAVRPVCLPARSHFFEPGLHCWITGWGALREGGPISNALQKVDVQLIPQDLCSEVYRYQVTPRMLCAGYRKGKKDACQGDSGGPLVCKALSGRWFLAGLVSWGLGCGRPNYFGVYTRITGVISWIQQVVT
# Test: Matriptase 2 fluorescence based inhibition assay, Method B (50 mM TRIS pH 7.5, 150 mM NaCl, 0.01% gelatin)
# Type: biochemical
# Conditions: 1 uM compound; Assay Used = B
# Experimental: Test compounds were evaluated for their potential to inhibit Human Recombinant Matriptase 2 (in-house and commercial protein from Enzo Life Sciences—cat log -ALX-201-752-1) using fluorescence based assay. The concentration of Recombinant Matriptase 2 and the substrate used in the assay was: 7 nM (commercial) and 15 nM (Inhouse Matriptase 2) and 100 μM (Boc-Gln-Ala-Arg-7-amido-4-methyl coumarin hydrobromide—Cat log: B4153-Sigma and I-1550 from Bachem) respectively. The assay buffer used was 50 mM TRIS pH 7.5, 150 mM NaCl, 0.01% gelatin (G1393 Sigma). The assay was performed using 384 well black flat bottom plate from grenier (Cat log: 781076) at 25° C. The enzyme and compound preincubated for 30 mins, plate was read 60 mins after substrate addition at wavelength Ex: 360/Em:480 nm. The final assay volume of was 20 μl. Stock solution of compounds were initially prepared in DMSO and appropriate dilutions were made for screening and IC50 determination (final DMSO conc in the assay was 1%). All the measurements were carried out using the Spectramax M5, Molecular devices. The compounds were screened at 1 and 10 μM concentration and IC50 was determined for the interested compounds.
# To determine IC50 values, dose response curves were generated by plotting percentage inhibition as a function of inhibitor concentration and the data was fitted to sigmoidal non-linear regression equation (variable slope) using Graph Pad prism software V7.
row,Structure (SMILES),Mar-2 % inhibition at 1 uM
1,CC1CCCCN1CCCNC(=O)c1cc2ccc(C(=N)N)cc2n1Cc1cccc2ccccc12 (stereo not drawn) [Compound I-479],C (C represents 50%≤I≤75%)
2,CC(C)(C)OC(=O)N[C@H]1CC[C@H](NC(=O)c2cc3ccc(C(=N)N)cc3n2Cc2cccc3ccccc23)CC1 [Compound I-403],A (A represents 0%≤I≤25%)

# Same assay, conditions: 1 uM compound; Assay Used = B (Method B)
row,Structure (SMILES),Mar-2 % inhibition at 1 uM
1,N=C(N)c1ccc2c(CO)c(C(=O)N[C@H]3CC[C@H](N)CC3)n(Cc3cccc4ccccc34)c2c1 [Compound I-619],A (A represents 0%≤I≤25%)

# Same assay, conditions: 1 uM compound; Assay Used = B (Method B); read-out: Mar-2 % inhibition at 1 uM
row,Structure (SMILES),inhibition at 1 µM
1,"N=C(N)c1ccc2cc(C(=O)O)n(Cc3cc(O)cc4ccccc34)c2c1 [Compound I-695, 6-carbamimidoyl-1-((3-hydroxynaphthalen-1-yl)methyl)-1H-indole-2-carboxylic Acid]",75 to 100%
2,N=C(N)c1ccc2cc(C(=O)OCCO)n(Cc3cccc4ccccc34)c2c1 [Compound I-611],50 to 75%
3,N=C(N)c1ccc2cc(C(=O)N[C@H]3CC[C@H](N)CC3)n(Cc3ccc(COCc4ccccc4)c4ccccc34)c2c1 [Compound I-781],75 to 100%
4,N=C(N)c1ccc2cc(C(=O)O)n(Cc3cc(Oc4ccc(N)cc4F)cc4ccccc34)c2c1 [Compound I-639],50 to 75%
5,"Cc1c(C(=O)O)n(Cc2cccc3ccccc23)c2cc(C(=N)N)ccc12 [Compound I-638, 6-carbamimidoyl-3-methyl-1-(naphthalen-1-ylmethyl)-1H-indole-2-carboxylic Acid]",50 to 75%
6,COc1ccc2c(Cn3c(C(=O)N[C@H]4CC[C@H](N)CC4)cc4ccc(/C(N)=N\O)cc43)cccc2c1 [Compound I-795],0 to 25%
7,"N=C(N)c1ccc2cc(N3CCOCC3)n(Cc3cccc4ccccc34)c2c1 [Compound I-644, 2-morpholino-1-(naphthalen-1-ylmethyl)-1H-indole-6-carboximidamide]",25 to 50%
8,CS(=O)(=O)Oc1cc(Cn2c(C(=O)O)cc3ccc(C(=N)N)cc32)c2ccccc2c1 [Compound I-623],50 to 75%
9,N=C(N)c1ccc2cc(C(=O)N[C@H]3CC[C@H](NC=O)CC3)n(Cc3cccc4ccccc34)c2c1 [Compound I-729],50 to 75%
10,N=C(N)c1ccc2cc(C(=O)O)n(C[C@H]3CCCc4ccccc43)c2c1 (racemic) [Compound I-613],25 to 50%
11,CN1CCC(COC(=O)c2cc3ccc(C(=N)N)cc3n2Cc2cccc3ccccc23)CC1 [Compound I-761],75 to 100%
12,N=C(N)c1ccc2cc(C(=O)N[C@H]3CC[C@H](N)CC3)n(Cc3cc(OCc4ccccc4)cc4ccccc34)c2c1 [Compound I-733],75 to 100%
13,N=C(N)c1ccc2cc(C(=O)N[C@H]3CC[C@H](N)CC3)n(Cc3cc(O)cc4ccccc34)c2c1 [Compound I-694],75 to 100%
14,"CO/N=C(\N)c1ccc2cc(C(=O)O)n(Cc3cccc4ccccc34)c2n1 [Compound I-704, (Z)-6-(N′-methoxycarbamimidoyl)-1-(naphthalen-1-ylmethyl)-1H-pyrrolo[2,3-b]pyridine-2-carboxylic Acid]",0 to 25%
15,N=C(N)c1ccc2cc(C(=O)N[C@H]3CC[C@H](N)CC3)n(C[C@H]3CCCc4ccccc43)c2c1 (racemic) [Compound I-612],25 to 50%
16,COc1ccccc1Oc1cc(Cn2c(C(=O)O)cc3ccc(C(=N)N)cc32)c2ccccc2c1 [Compound I-709],25 to 50%
17,N=C(N)c1ccc2cc(C(=O)NC3CCC(N)CC3)n(Cc3ccc(C(=N)N)c4ccccc34)c2c1 (stereo not drawn) [Compound I-645],25 to 50%
18,COc1ccc2cccc(Cn3c(C(=O)N[C@H]4CC[C@H](N)CC4)cc4ccc(C(=N)N)cc43)c2c1 [Compound I-775],75 to 100%
19,CC(C)COC(=O)NC(=N)c1ccc2cc(C(=O)O)n(Cc3cc(Oc4ccccc4)cc4ccccc34)c2c1 [Compound I-622],0 to 25%
20,N=C(N)c1ccc2cc(C(=O)O)n(Cc3cccc4ccccc34)c2n1 [Compound I-766],75 to 100%
21,Cc1ccc(S(=O)(=O)Oc2cc(Cn3c(C(=O)N[C@H]4CC[C@H](N)CC4)cc4ccc(C(=N)N)cc43)c3ccccc3c2)cc1 [Compound I-614],75 to 100%
22,N=C(N)c1ccc2cc(C(=O)O)n(Cc3cc(Oc4cccnn4)cc4ccccc34)c2c1 [Compound I-610],25 to 50%

# Same assay, conditions: 1 uM compound; Assay Used = B; read-out: Mar-2 % inhibition at 1 uM
row,Structure (SMILES),inhibition at 1 µM
1,CCOC(=O)N1CCC(NC(=O)c2cc3ccc(C(=N)N)cc3n2Cc2cccc3ccccc23)CC1 [Compound I-434],75 to 100%
2,CC(C)(C)OC(=O)NC(=N)c1ccc2cc(C(=O)NC3CCCN(C(=O)OC(C)(C)C)C3)n(Cc3cccc4ccccc34)c2c1 (stereo not drawn) [Compound I-427],0 to 25%
3,CC(C)(C)OC(=O)NC(=N)c1ccc2cc(C(=O)N[C@H]3CC[C@H](NC(=O)OC(C)(C)C)CC3)n(Cc3ccnc4ccccc34)c2c1 [Compound I-494],0 to 25%
4,N=C(N)c1ccc2cc(C(=O)NC3CCNCC3F)n(Cc3cccc4ccccc34)c2c1 (stereo not drawn) [Compound I-593],75 to 100%
5,N=C(N)c1ccc2cc(C(=O)NCCS(N)(=O)=O)n(Cc3cc(Oc4ncccn4)cc4ccccc34)c2c1 [Compound I-547],75 to 100%
6,NCc1ccc2cc(C(=O)NC3CCCC(N)C3)n(Cc3cccc4ccccc34)c2c1 (stereo not drawn) [Compound I-540],25 to 50%
7,CNC(=N)c1ccc2cc(C(=O)NC3CCC(NC(=O)OC(C)(C)C)CC3)n(Cc3ccc4ccccc4c3)c2c1 (stereo not drawn) [Compound I-412],25 to 50%
8,N=C(N)c1ccc2cc(C(=O)OCCNC(N)=O)n(Cc3cc(Oc4ncccn4)cc4ccccc34)c2c1 [Compound I-568],75 to 100%
9,N=C(N)c1ccc2cc(C(=O)N3CCCNCC3)n(Cc3cccc4ccccc34)c2c1 [Compound I-442],50 to 75%
10,N=C(N)c1ccc2cc(C(=O)N3CCC(CN)CC3)n(Cc3cccc4ccccc34)c2c1 [Compound I-429],50 to 75%
11,"NC(=O)c1ccc2cc(C(=O)N[C@H]3CC[C@H](N)CC3)n(-c3cccc4ccccc34)c2c1 [Compound I-417, N2-((1r,4r)-4-aminocyclohexyl)-1-(naphthalen-1-yl)-1H-indole-2,6-dicarboxamide]",0 to 25%
12,N=C(N)c1ccc2cc(C(=O)NC3CCCNC3)n(Cc3cccc4ccccc34)c2c1 (stereo not drawn) [Compound I-445],75 to 100%
13,"N=C(N)c1ccc2cc(C(=O)O)n(Cc3cc(NS(=O)(=O)c4ccccc4)cc4ccccc34)c2c1 [Compound I-567, 6-carbamimidoyl-1-((3-(phenylsulfonamido)naphthalen-1-yl)methyl)-1H-indole-2-carboxylic Acid]",75 to 100%
14,N=C(N)c1ccc2cc(C(=O)N3CCC(CO)CC3)n(Cc3cccc4ccccc34)c2c1 [Compound I-444],25 to 50%
15,"N=C(N)c1ccc2c(N)c(C(=O)N[C@H]3CC[C@H](N)CC3)n(Cc3cccc4ccccc34)c2c1 [Compound I-511, 3-amino-N-((1r,4r)-4-aminocyclohexyl)-6-carbamimidoyl-1-(naphthalen-1-ylmethyl)-1H-indole-2-carboxamide]",75 to 100%

# Same assay, conditions: compound at 1 uM; Assay Used: B; read-out: Mar-2 % inhibition at 1 uM
row,Structure (SMILES),inhibition at 1 µM
1,CN(C)CCCOc1ccc2c(Cn3c(C(=O)O)cc4ccc(C(=N)N)cc43)cccc2c1 [Compound I-808],50 to 75%
2,N=C(N)c1ccc2cc(C(=O)N[C@H]3CC[C@H](N)CC3)n(Cc3cccc4c3CCCC4)c2c1 [Compound I-814],25 to 50%
3,N=C(N)c1ccc2cc(C(=O)OC3CCCCC3)n(Cc3cccc4ccccc34)c2c1 [Compound I-811],25 to 50%

# Same assay, conditions: read-out: Mar-2 % inhibition at 1 uM
row,Structure (SMILES),inhibition at 1 µM
1,CN1CCC(NC(=O)c2cc3ccc(C(=N)NC(=O)Oc4ccccc4)cc3n2Cc2cccc3ccccc23)CC1 [Compound I-782],50 to 75%
2,COC(=O)NCCOC(=O)c1cc2ccc(C(=N)NC(=O)Oc3ccccc3)cc2n1Cc1cc(Oc2ncccn2)cc2ccccc12 [Compound I-554],0 to 25%
